Legend:
[1] = target: T1, NFP L147D/L154D mutant (Medicago truncatula, UniProt Q0GXS4, L147D/L154D); assay: BLI binding of NFP L147D/L154D mutant ectodomain to S. meliloti LCO-IV
T1 construct: The Medicago truncatula NFP ectodomain (residues 28-246) was codon-optimized; AcMNPV gp67 signal peptide (replaces native residues 1-27) (N, cleaved yes); made in house; host or cells: Sf9 insect cells (Spodoptera frugiperda), baculovirus, secreted into the medium
Source text: Creation of NFP point mutations: The NFP leucine residues L147 and L154 were replaced with aspartate residues. Aspartate is similar in size to leucine, but negatively charged where leucine is hydrophobic. Point mutants of NFP were engineered using site-directed mutagenesis. In particular, a double-mutated NFP was engineered where the leucine residues L147 and L154 were replaced with aspartate residues to create the mutant NFP L147D L154D. Point mutated versions of NFP were expressed and purified as described in Example 1.
NFP mutant binding assays: The binding assay using NFP wild type (WT) protein was replicated seven times, while the binding assay using the NFP mutant NFP L147D L154D was replicated four times.
Biolayer interferometry (BLI): Binding of NFP WT and NFP L147D/L154D mutant to S. meliloti LCO-IV was measured on an Octet RED 96 system (Pall ForteBio). S. meliloti LCO consists of a tetrameric/pentameric N-acetylglucosamine backbone that is O-sulfated on the reducing terminal residue, O-acetylated on the non-reducing terminal residue, and mono-N-acylated by unsaturated C16 acyl groups. Biotinylated ligand conjugates were immobilized on streptavidin biosensors (kinetic quality, Pall ForteBio) at a concentration of 125-250 nM for 5 minutes. The binding assays were replicated 7 times for the NFP WT, and 4 times for the NFP L147D/L154D mutant. Data analysis was performed in GraphPad Prism 6 software (GraphPad Software, Inc.). Equilibrium dissociation constants derived from the steady-state were determined by applying a non-linear regression (one site, specific binding) to the response at equilibrium plotted against the protein concentration. Kinetic parameters were determined by non-linear regression (association followed by dissociation) on the subtracted data. Binding of A. thaliana CERK1 (AtCERK1) to chitopentaose (CO5) and chitooctaose (CO8) was measured in the same way.

[2] = system: L. japonicus nfr1-1 mutant roots; assay: Nodulation complementation of L. japonicus nfr1-1 mutants with LjNFR1/MtLYK3 chimeras, M. loti R7A; assay type: in vivo, Lotus japonicus; details: 35 days post inoculation with M. loti R7A
Source text: Complementation assay: Construct assembly, plant growth conditions, hairy root transformations, nodulation and ROS assays were generally conducted as described in Bozsoki et al. (2017) (Bozsoki Z, Cheng J, Feng F, Gysel K, Vinther M, Andersen K R, Oldroyd G, Blaise M, Radutoiu S, Stougaard J (2017) Receptor-mediated chitin perception in legume roots is functionally separable from Nod factor perception. Proc Natl Acad Sci 114: E8118-E8127). A general schematic of the construct is provided in FIG. 3, whereby the pNFR1 promoter was used to drive the chimeric constructs. The tested chimeric receptors in Lotus are depicted as block diagrams below the graph in FIG. 7, where NFR1 domains are shown in white and LYK3 domains are shown in grey, and transverse lines across the block depicting the LysM1 domain indicate sections II and IV. […] Nodules were counted on hairy root transformed L. japonicus nfr1-1 mutant roots 35 days post inoculation with M. loti R7Å. M. loti R7A is the cognate N-fixing bacterial strain for L. japonicus, and is not recognized by M. truncatula.

[3] = system: Medicago nfp mutants; assay: Complementation (nodulation) of Medicago nfp mutants, inoculation with S. meliloti strain 2011; assay type: in vivo, Medicago truncatula; details: 6-7 weeks after inoculation with S. meliloti strain 2011, hairy root transformation
Source text: (§1) Complementation assay: Construct assembly, plant growth conditions, hairy root transformations, nodulation and ROS assays were generally conducted as described in Bozsoki et al. (2017) (Bozsoki Z, Cheng J, Feng F, Gysel K, Vinther M, Andersen K R, Oldroyd G, Blaise M, Radutoiu S, Stougaard J (2017) Receptor-mediated chitin perception in legume roots is functionally separable from Nod factor perception. Proc Natl Acad Sci 114: E8118-E8127). The tested transgenes were the mutated LysM receptors described in Example 2.

[4] = system: Medicago nfp mutants; assay: Complementation (nodulation) of Medicago nfp mutants, inoculation with S. medicae; assay type: in vivo, Medicago truncatula
Source text: as §1
These complementation experiments were repeated using S. medicae inoculation, which has been reported to nodulate Medicago with higher efficiency. The results shown in FIG. 4B are complementation tests where the plants were inoculated with S. medicae.

## CCCCCC/C=C\CCCCC/C=C/C(=O)N[C@H]1[C@H](O[C@H]2[C@H](O)[C@@H](NC(C)=O)[C@H](O[C@H]3[C@H](O)[C@@H](NC(C)=O)[C@H](O[C@H]4[C@H](O)[C@@H](NC(C)=O)C(O)O[C@@H]4COS(=O)(=O)O)O[C@@H]3CO)O[C@@H]2CO)O[C@H](COC(C)=O)[C@@H](O)[C@@H]1O (some centres unmarked) [S. meliloti LCO-IV]
[1]; FIGS. 19A-19C
  association rate (kon) faster compared to WT NFP-ECD: 4.5 fold
  dissociation rate (koff) increased compared to WT NFP-ECD: 59 fold
[1]; S. meliloti LCO-IV, FIG. 2B
  Kd: 48 ± 1 µM
  affinity compared with NFP WT: approximately two times lower affinity
  association (Kon) compared with NFP WT: almost unaffected
  dissociation (Koff) faster than NFP WT: approximately 15 times
[1]; purified L147D/L154D NFP-ECD, FIGS. 19A-19C
  Kd: 167 ± 4.2 µM

B1: LjCERK6: unaltered Lotus CERK6 chitin receptor protein (SEQ ID NO:34), negative control (protein)
chain: MEHPRLGFPITLLLFSFILLPSTSQSKCTHGCALAQASYYLLNGSNLTYISEIMQSSLLTKPEDIVSYNQDTIASKDSVQAGQRINVPFPCDCIEGEFLGHTFQYDVQKGDRYDTIAGTNYANLTTVEWLRRFNSYPPDNIPDTGTLNVTVNCSCGDSGVGDYGLFVTYPLRPGETLGSVASNVKLDSALLQKYNPNVNFNQGSGIVYIPAKDQNGSYVLLGSSSGGLAGGAIAGIAAGVAVCLLLLAGFIYVGYFRKKRIQKEELLSQETRAIFPQDGKDENPRSTVNETPGPGGPAAMAGITVDKSVEFSYDELATATDNFSLANKIGQGGFGSVYYAELRGERAAIKKMDMQASKEFLAELKVLTRVHHLNLVRLIGYSIEGSLFLVYEFIENGNLSQHLRGSGRDPLPWATRVQIALDSARGLEYIHEHTVPVYIHRDIKSANILIDKNYRGKVADFGLTKLTEVGSSSLPTGRLVGTFGYMPPEYAQYGDVSPKVDVYAFGVVLYELISAKDAIVKTSESITDSKGLVALFEGVLSQPDPTEDLRKLVDQRLGDNYPVDSVRKMAQLAKACTQDNPQLRPSMRSIVVALMTLSSTTDDWDVGSFYENQNLVNLMSGR
[2]
  complementation (nodulation): zero nodulation

B2: wild type Nfp gene: wild type Medicago NFP LysM receptor transgene used for hairy root complementation (protein, UniProt Q0GXS4 28-595, looked up)
Serine/threonine …: QPLYISETNFTCPVDSPPSCETYVAYRAQSPNFLSLSNISDIFNLSPLRIAKASNIEAEDKKLIPDQLLLVPVTCGCTKNHSFANITYSIKQGDNFFILSITSYQNLTNYLEFKNFNPNLSPTLLPLDTKVSVPLFCKCPSKNQLNKGIKYLITYVWQDNDNVTLVSSKFGASQVEMLAENNHNFTASTNRSVLIPVTSLPKLDQPSSNGRKSSSQNLALIIGISLGSAFFILVLTLSLVYVYCLKMKRLNRSTSSSETADKLLSGVSGYVSKPTMYEIDAIMEGTTNLSDNCKIGESVYKANIDGRVLAVKKIKKDASEELKILQKVNHGNLVKLMGVSSDNDGNCFLVYEYAENGSLEEWLFSESSKTSNSVVSLTWSQRITIAMDVAIGLQYMHEHTYPRIIHRDITTSNILLGSNFKAKIANFGMARTSTNSMMPKIDVFAFGVVLIELLTGKKAMTTKENGEVVILWKDFWKIFDLEGNREERLRKWMDPKLESFYPIDNALSLASLAVNCTADKSLSRPTIAEIVLCLSLLNQPSSEPMLERSLTSGLDAEATHVVTSVIAR
[3]
  nodules per plant: 10 nodules per plant

B3: double mutant construct (L147D/L154D): Medicago NFP with leucine residues L147 and L154 replaced with aspartate (hydrophobic patch mutant) (protein, UniProt Q0GXS4 28-595, looked up, variant L147D L154D)
Serine/threonine …: QPLYISETNFTCPVDSPPSCETYVAYRAQSPNFLSLSNISDIFNLSPLRIAKASNIEAEDKKLIPDQLLLVPVTCGCTKNHSFANITYSIKQGDNFFILSITSYQNLTNYLEFKNFNPNDSPTLLPDDTKVSVPLFCKCPSKNQLNKGIKYLITYVWQDNDNVTLVSSKFGASQVEMLAENNHNFTASTNRSVLIPVTSLPKLDQPSSNGRKSSSQNLALIIGISLGSAFFILVLTLSLVYVYCLKMKRLNRSTSSSETADKLLSGVSGYVSKPTMYEIDAIMEGTTNLSDNCKIGESVYKANIDGRVLAVKKIKKDASEELKILQKVNHGNLVKLMGVSSDNDGNCFLVYEYAENGSLEEWLFSESSKTSNSVVSLTWSQRITIAMDVAIGLQYMHEHTYPRIIHRDITTSNILLGSNFKAKIANFGMARTSTNSMMPKIDVFAFGVVLIELLTGKKAMTTKENGEVVILWKDFWKIFDLEGNREERLRKWMDPKLESFYPIDNALSLASLAVNCTADKSLSRPTIAEIVLCLSLLNQPSSEPMLERSLTSGLDAEATHVVTSVIAR
[3]
  nodules per plant: did not develop any nodules
[4]
  complementation: complements poorly

Reference: US12190997B2, “Genetically altered LysM receptors with altered agonist specificity and affinity” (Aarhus Universitet, priority 2018, dated 2025)
